Assay results from ChEMBL document CHEMBL1150171, “DNA-damaging agents from Crypteronia paniculata” (J Nat Prod, 2002).
pIC50: −log10 of the molar value. Activity calls are given as the source filed them. The rule behind the calls is not given here.

What was measured:
Saccharomyces cerevisiae [1] = experiment: DNA damaging activity against RAD52 transformed Saccharomyces cerevisiae in glucose minimal medium after 41 hrs; format: functional, organism-based
Saccharomyces cerevisiae [2] = experiment: DNA damaging activity against YCp50 transformed Saccharomyces cerevisiae in galactose minimal medium after 41 hrs
Saccharomyces cerevisiae [3] = experiment: DNA damaging activity against RAD52 transformed Saccharomyces cerevisiae in galactose minimal medium after 41 hrs; format: functional, organism-based
Nucleic Acid [4] = experiment: Induction of DNA cleavage assessed as relaxation of supercoiled plasmid DNA at > 1 mM in presence of Cu2+ by cell free assay; format: nucleic-acid assay
Nucleic Acid [5] = experiment: Induction of DNA cleavage assessed as relaxation of supercoiled plasmid DNA at > 1 mM by cell free assay; format: nucleic-acid assay

Row | pIC50 (Saccharomyces cerevisiae [1]) | pIC50 (Saccharomyces cerevisiae [2]) | pIC50 (Saccharomyces cerevisiae [3]) | Activity (Nucleic Acid [4]) | Activity (Nucleic Acid [5]) | Structure (SMILES)
1 | 5.95 | 6.47 | 4.84 |  |  | COc1c(O[C@@H]2O[C@H](CO)[C@@H](O)[C@H](O)[C@H]2O)cc2c(=O)oc3c4c(cc5c(=O)oc1c2c35)OCO4 [NYSSOSIDE]
2 | 5.13 | 5.03 | < 3.00 | inactive | inactive | C[C@@H]1O[C@@H](Oc2c(-c3ccc(O)cc3)oc3cc(O)cc(O)c3c2=O)[C@H](O)[C@H](O)[C@H]1O [AFZELIN]
3 | 5.51 | 4.64 | < 3.00 |  |  | COc1c(O)cc2c(=O)oc3c(OC)c(O[C@@H]4OC[C@@H](O)[C@H](O)[C@H]4O)cc4c(=O)oc1c2c34
